# From patent US6423706B1, “Antimicrobial locks comprising taurinamide derivatives and carboxylic acids and/or salts thereof” (Biolink Corporation, priority 1998, dated 2002)
# Read-outs that look alike come from different tables or passages of the source.
# Tests used:
# S. epidermis = conditions: cited from earlier work
# E. coli [1] = conditions: urine isolate, human uroepithelial cells; concentration dependent; cited from earlier work
# Candida albicans = conditions: oral isolate, human buccal epithelial cells; concentration dependent; cited from earlier work
# E. coli [2] = conditions: 0.2 mL of 20% solution in 5% polyvinyl pyrrolidone intravenous; E. coli intraperitoneal; cited from earlier work
# whole blood = assay: Clotting of whole pig blood mixed with taurolidine solution with or without ACD-A; conditions: pig blood filled to 30 mL, inspected after 30 minutes
# Method: A 0.5% solution of taurolidine in Ringer-lactate solution (Thomae, Biberach, Germany) was introduced into each of four polyethylene bottles having a 30 mL volume. Filling volumes were 5, 10, and 15 mL. One bottle was filled with 5 mL of the taurolidine solution and 2 mL ACD-A (Fresenius, Bad Homburg, Germany) solution. ACD-A solution is used for the conservation of whole blood and contains per liter: 22.0 grams of sodium citrate dihydrate, 7.3 grams of citric acid and 34.5 grams of glucose monohydrate.
# Blood was collected at the slaughter house from a female pig directly from the slaughter wound into the containers that were then filled up to the 30 mL level. The containers were capped and gently moved to mix blood with the solution. The containers were inspected after 30 minutes. Blood in the containers containing only taurolidine was clotted, but the blood in the container containing the mixture of taurolidine and ACD-A was not clotted.
# B. fragilis = conditions: 0.2 mL of 20% solution in 5% polyvinyl pyrrolidone intravenous; B. fragilis intraperitoneal; cited from earlier work
# [3] = mice; cited from earlier work
# [4] = Long term stability of taurolidine in solution; format: physicochemical; conditions: citric acid and sodium citrate buffer, compared with PVP solutions
# Excerpt: In addition, citric acid is a known antioxidant. The buffer system created by adjustment of pH using sodium hydroxide also resists changes in the pH due to the oxidation of formaldehyde to formic acid.
# [5] = mouse, in vivo; cited from earlier work
# [6] = test system: Staphylococcus Aureus (VISA, MRSA); conditions: pH 7.0 to pH 5.0; cited from earlier work
# [7] = clinical and bacteriologic outcomes, endotoxemia, organ failure, 28-day mortality; cited from earlier work
molecule,measurement,setting,value
CN[C@H](CC(C)C)C(=O)N[C@H]1C(=O)N[C@@H](CC(N)=O)C(=O)N[C@H]2C(=O)N[C@H]3C(=O)N[C@H](C(=O)N[C@H](C(=O)O)c4cc(O)cc(O)c4-c4cc3ccc4O)[C@H](O)c3ccc(c(Cl)c3)Oc3cc2cc(c3O[C@@H]2O[C@H](CO)[C@@H](O)[C@H](O)[C@H]2O[C@H]2C[C@](C)(N)[C@H](O)[C@H](C)O2)Oc2ccc(cc2Cl)[C@H]1O [Vancomycin],Bactericidal concentration,S. epidermis; initial inocula 10^3 CFU/mL,6.7 µg/mL
[H]/N=C(\N/C(=N/[H])NCCCCCCNC(=N)NC(=N)Nc1ccc(Cl)cc1)Nc1ccc(Cl)cc1 [chlorhexidine],Anti-adherence activity,E. coli [1],significant
same,Anti-adherence activity,Candida albicans,significant
"O=C(O)CN(CCN(CC(=O)O)CC(=O)O)CC(=O)O [disodium EDTA, ethylenediaminetetraacetic acid]",Bactericidal concentration,"S. epidermis; initial inoculum 10^3 CFU per mL, in 24 hours",20000 µg/mL
"O=S1(=O)CCN(CN2CCS(=O)(=O)NC2)CN1 [taurolidine, bis-(1,1-dioxo-perhydroxy-1,2,4-thiadiazin-4-yl)methane]",Anti-adherence activity,E. coli [1],significant
same,Anti-adherence activity,Candida albicans,significant
same,Mortality rate,E. coli [2],very significantly reduce the mortality rate
same,Blood clotting on inspection,whole blood,clotted
same,Mortality rate,B. fragilis,very significantly reduce the mortality rate
same,Taurolidine solubility believed reachable,"additional citric acid, without polyol or PVP",5%
same,Taurolidine in solution achieved,"approximately 2.6% by weight citric acid, no PVP or polyol, pH 5.2 to 5.3",4.0 weight percent
same,Intraperitoneal LD50,[3],~1500 mg/kg
same,Stability of taurolidine in solution,[4],increases the stability
same,Teratogenicity,[5],non-teratogenic
same,Dependence of activity on pH,[6],increases with decreasing pH
same,Therapeutic effect on outcome,[7],no beneficial therapeutic effect
heparin,Inhibition of growth,S. epidermis; isolate from catheter of infected patient,does not inhibit the growth
povidone-iodine,Anti-adherence activity,E. coli [1],significant
same,Anti-adherence activity,Candida albicans,significant
